Results: ChEMBL document CHEMBL1129824, “Nonpeptidic inhibitors of recombinant human calpain I” (Bioorg Med Chem Lett, 1997)
pIC50: −log10 of the molar value.

Key:
[1] = target: Chymotrypsinogen A (Bos taurus) (UniProt P00766); assay: Inhibitory activity using serine protease, alpha-chymotrypsin with Succ-Ala-Ala-Pro-Phe-AMC as substrate. The percent inhibition at 10 uM concentration, was reported.
[2] = target: Prothrombin (Homo sapiens) (UniProt P00734); assay: Inhibitory activity using serine protease, thrombin with Cbz-Phe-Val-Arg-AMC as substrate. The percent inhibition at 10 uM concentration, was reported.
[3] = target: T1, Calpain-1 catalytic subunit (Homo sapiens, UniProt P07384); assay: Inhibitory activity using recombinant human Calpain 1 with Suc-Leu-Tyr-MNA as substrate.
T1 sequence (P07384 whole entry): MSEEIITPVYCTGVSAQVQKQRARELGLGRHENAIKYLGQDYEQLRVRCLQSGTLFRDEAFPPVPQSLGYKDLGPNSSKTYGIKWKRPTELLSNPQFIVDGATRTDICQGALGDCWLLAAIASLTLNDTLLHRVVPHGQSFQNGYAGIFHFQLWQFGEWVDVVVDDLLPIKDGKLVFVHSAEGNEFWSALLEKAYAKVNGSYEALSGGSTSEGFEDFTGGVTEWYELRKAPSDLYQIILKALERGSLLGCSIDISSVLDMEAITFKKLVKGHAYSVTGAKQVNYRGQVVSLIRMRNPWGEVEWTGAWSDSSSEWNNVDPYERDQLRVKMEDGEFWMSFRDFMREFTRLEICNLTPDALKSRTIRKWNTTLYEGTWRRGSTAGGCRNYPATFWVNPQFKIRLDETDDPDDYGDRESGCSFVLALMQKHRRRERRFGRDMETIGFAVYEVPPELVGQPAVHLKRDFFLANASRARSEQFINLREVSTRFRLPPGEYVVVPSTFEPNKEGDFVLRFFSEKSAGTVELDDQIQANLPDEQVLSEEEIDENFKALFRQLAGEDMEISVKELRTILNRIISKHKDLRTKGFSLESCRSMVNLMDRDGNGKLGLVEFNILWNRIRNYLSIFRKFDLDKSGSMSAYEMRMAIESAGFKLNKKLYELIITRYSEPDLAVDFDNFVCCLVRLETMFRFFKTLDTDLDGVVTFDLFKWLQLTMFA

Cathepsin B = Cathepsin B (Homo sapiens, UniProt P07858); assay: Inhibitory activity using cysteine protease, Cathepsin B with Cbz-Phe-Arg-AMC as substrate.

CC(C)C[C@H](CCS(=O)(=O)c1ccc2ccccc2c1)C(=O)N[C@H](C=O)CC(C)C
inhibition [1]: 11%
inhibition [2]: 1%

CC(C)C[C@H](CC[S+]([O-])c1ccc2ccccc2c1)C(=O)N[C@H](C=O)CC(C)C (some centres not stated)
pIC50 [3]: 7.52
pIC50 (Cathepsin B): 7.22
inhibition [1]: 18%
inhibition [2]: 2%

CC(C)C[C@H](CCSc1ccc2ccccc2c1)C(=O)N[C@H](C=O)CC(C)C
pIC50 [3]: 7.12
pIC50 (Cathepsin B): 7.22
inhibition [1]: 11%
inhibition [2]: 5%

CC(C)C[C@@H](CCS(=O)(=O)c1ccc2ccccc2c1)C(=O)N[C@H](C=O)CC(C)C
inhibition [1]: 12%
inhibition [2]: 2%
